Results reported in ChEMBL document CHEMBL3217418, “Design, synthesis and biological activity evaluation of regioisomeric spiro-(indoline-isoxazolidines) in the inhibition of TNF--induced ICAM-1 expression on human endothelial cells” (Medchemcomm, 2012).
Active and inactive are the calls of the source. The calls are words filed in the database; no cut-off is given here.

Tested on: HUVEC
Experiment: Antiinflammatory activity in HUVEC assessed as inhibition of TNFalpha-induced ICAM-1 expression incubated for 2 hrs prior to TNFalpha challenge measured after 16 hrs by ELISA
Format: functional, cell-based
Conditions: Homo sapiens
Compound `CCOC(=O)C1ON(c2ccccc2)C(c2ccccc2F)C12C(=O)Nc1ccc(F)cc12` (configuration not stated) has an IC50 of 51 µM.
For `CCOC(=O)C1ON(c2ccccc2)C(c2ccc(F)cc2)C12C(=O)Nc1ccc(F)cc12` (configuration not stated), the IC50 was greater than 111 µM.
`CCOC(=O)C1C(c2ccc(C#N)cc2)N(c2ccccc2)OC12C(=O)Nc1ccc(F)cc12` (configuration not stated) showed an IC50 of 49 µM.
`CCOC(=O)C1ON(c2ccccc2)C(c2ccc(Br)cc2)C12C(=O)Nc1ccc(F)cc12` (configuration not stated) showed an IC50 of 35 µM.
`CCOC(=O)C1ON(c2ccccc2)C(c2cccc(Cl)c2)C12C(=O)Nc1ccccc12` (configuration not stated) gave an IC50 of 25 µM.
Compound `CCOC(=O)C1ON(c2ccccc2)C(c2cccc(OC)c2OC)C12C(=O)Nc1ccc(F)cc12` (configuration not stated) has an IC50 of 32 µM.
With `CCOC(=O)C1ON(c2ccccc2)C(c2cccc([N+](=O)[O-])c2)C12C(=O)Nc1ccccc12` (configuration not stated) the IC50 was 169 µM.
With `CCOC(=O)C1ON(c2ccccc2)C(c2ccc(F)cc2)C12C(=O)Nc1ccccc12` (configuration not stated) the IC50 was 51 µM.
`CCOC(=O)C1ON(c2ccccc2)C(c2cc(OC)c(OC)c(OC)c2)C12C(=O)Nc1ccc(F)cc12` (configuration not stated) showed an IC50 of 29 µM.
`CCOC(=O)C1ON(c2ccccc2)C(c2ccc(C)cc2)C12C(=O)Nc1ccccc12` (configuration not stated) gave an IC50 of 52 µM.
`CCOC(=O)C1ON(c2ccccc2)C(c2cccc(Br)c2)C12C(=O)Nc1ccccc12` (configuration not stated) showed an IC50 of 57 µM.
For `CCOC(=O)C1ON(c2ccccc2)C(c2ccc(N(C)C)cc2)C12C(=O)Nc1ccc(F)cc12` (configuration not stated), the IC50 was 26 µM.
For `CCOC(=O)C1ON(c2ccccc2)C(c2ccc(OCC)cc2)C12C(=O)Nc1ccc(F)cc12` (configuration not stated), the IC50 was 12 µM.
With `O=C(/C=C/C=C/c1ccc2c(c1)OCO2)N1CCCCC1` [PIPERINE] the IC50 was 100 µM.
With `CCOC(=O)C1ON(c2ccccc2)C(c2ccc(Cl)cc2)C12C(=O)Nc1ccccc12` (configuration not stated) the IC50 was 147 µM.
With `CCOC(=O)C1C(c2ccc(Cl)cc2)N(c2ccccc2)OC12C(=O)Nc1ccccc12` (configuration not stated) the IC50 was greater than 223 µM.
Compound `CCOC(=O)C1ON(c2ccccc2)C(c2ccc(Br)cc2)C12C(=O)Nc1ccccc12` (configuration not stated) has an IC50 of 51 µM.
Compound `CCOC(=O)C1ON(c2ccccc2)C(c2ccc(OC)cc2)C12C(=O)Nc1ccc(F)cc12` (configuration not stated) has an IC50 of 42 µM.
`CCOC(=O)C1C(c2cccc(C)c2)N(c2ccccc2)OC12C(=O)Nc1ccccc12` (configuration not stated) showed an IC50 of 57 µM.

Tested on: Neutrophil
Experiment: Inhibition of human neutrophil adhesion to human endothelial cells incubated for 2 hrs prior to TNFalpha challenge measured after 6 hrs by spectroscopy
Format: functional, cell-based
Conditions: not given
In the case of `CCOC(=O)C1ON(c2ccccc2)C(c2ccc(OCC)cc2)C12C(=O)Nc1ccc(F)cc12` (configuration not stated), the IC50 is reported as 12.5 µM and the inhibition is reported as “Dose-dependent effect”.

Target: Transcription factor p65 (Homo sapiens) (UniProt Q04206)
Sequence (Q04206 whole entry): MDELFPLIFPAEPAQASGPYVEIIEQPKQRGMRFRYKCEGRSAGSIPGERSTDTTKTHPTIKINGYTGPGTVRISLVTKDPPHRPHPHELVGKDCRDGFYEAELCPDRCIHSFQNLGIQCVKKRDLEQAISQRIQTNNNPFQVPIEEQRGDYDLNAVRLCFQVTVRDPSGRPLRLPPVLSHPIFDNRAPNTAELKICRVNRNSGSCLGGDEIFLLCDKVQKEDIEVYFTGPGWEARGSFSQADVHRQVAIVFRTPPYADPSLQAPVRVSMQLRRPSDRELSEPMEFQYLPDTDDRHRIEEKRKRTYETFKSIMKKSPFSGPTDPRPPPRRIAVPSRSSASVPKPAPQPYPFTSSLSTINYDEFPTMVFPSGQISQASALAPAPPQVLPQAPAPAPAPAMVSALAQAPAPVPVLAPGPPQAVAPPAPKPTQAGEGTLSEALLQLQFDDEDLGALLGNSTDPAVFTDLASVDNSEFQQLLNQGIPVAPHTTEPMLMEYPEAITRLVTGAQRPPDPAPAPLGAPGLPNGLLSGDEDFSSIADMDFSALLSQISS
Experiment: Inhibition of NF-kappaB p65 subunit translocation from cytoplasm to nucleus in HUVEC at 1 to 100 uM incubated for 2 hrs prior to TNFalpha challenge measured after 30 mins by SDS-PAGE
Conditions: not given
For `CCOC(=O)C1ON(c2ccccc2)C(c2ccc(OCC)cc2)C12C(=O)Nc1ccc(F)cc12` (configuration not stated), the inhibition was “Dose-dependent effect”.

Target: Transcription factor p65 (Homo sapiens) (UniProt Q04206)
Experiment: Inhibition of NF-kappaB p65 subunit translocation from cytoplasm to nucleus in HUVEC assessed as NF-kappaB p65 subunit level in cytoplasm at 1 to 100 uM incubated for 2 hrs prior to TNFalpha challenge measured after 30 mins by densitometry
Conditions: not given
For `CCOC(=O)C1ON(c2ccccc2)C(c2ccc(OCC)cc2)C12C(=O)Nc1ccc(F)cc12` (configuration not stated), the inhibition was “Active”.

Target: Transcription factor p65 (Homo sapiens) (UniProt Q04206)
Experiment: Inhibition of NF-kappaB p65 subunit translocation from cytoplasm to nucleus in HUVEC assessed as NF-kappaB p65 subunit level in nuclear extract at 1 to 100 uM incubated for 2 hrs prior to TNFalpha challenge measured after 30 mins by densitometry
Conditions: not given
For `CCOC(=O)C1ON(c2ccccc2)C(c2ccc(OCC)cc2)C12C(=O)Nc1ccc(F)cc12` (configuration not stated), the inhibition was “Active”.

Tested on: not listed separately
Experiment: Cytotoxicity against HUVEC assessed as concentration at which viability is > 95 % after 24 hrs by MTT assay
Format: cell-based
Conditions: human, HUVEC cells; read-out: MTD
In the case of `CCOC(=O)C1ON(c2ccccc2)C(c2ccccc2F)C12C(=O)Nc1ccc(F)cc12` (configuration not stated), the MNTC at 24 h is reported as 111 µM.
Compound `CCOC(=O)C1ON(c2ccccc2)C(c2ccc(F)cc2)C12C(=O)Nc1ccc(F)cc12` (configuration not stated) has an MNTC at 24 h of 111 µM.
In the case of `CCOC(=O)C1C(c2ccc(C#N)cc2)N(c2ccccc2)OC12C(=O)Nc1ccc(F)cc12` (configuration not stated), the MNTC at 24 h is reported as 110 µM.
With `CCOC(=O)C1ON(c2ccccc2)C(c2ccc(Br)cc2)C12C(=O)Nc1ccc(F)cc12` (configuration not stated) the MNTC at 24 h was 98 µM.
Work on `CCOC(=O)C1ON(c2ccccc2)C(c2cccc(Cl)c2)C12C(=O)Nc1ccccc12` (configuration not stated) yielded an MNTC at 24 h of 223 µM.
`CCOC(=O)C1ON(c2ccccc2)C(c2cccc(OC)c2OC)C12C(=O)Nc1ccc(F)cc12` (configuration not stated) showed an MNTC at 24 h of 102 µM.
Compound `CCOC(=O)C1ON(c2ccccc2)C(c2cccc([N+](=O)[O-])c2)C12C(=O)Nc1ccccc12` (configuration not stated) has an MNTC at 24 h of 218 µM.
For `CCOC(=O)C1ON(c2ccccc2)C(c2ccc(F)cc2)C12C(=O)Nc1ccccc12` (configuration not stated), the MNTC at 24 h was 116 µM.
`CCOC(=O)C1ON(c2ccccc2)C(c2cc(OC)c(OC)c(OC)c2)C12C(=O)Nc1ccc(F)cc12` (configuration not stated) showed an MNTC at 24 h of 96 µM.
For `CCOC(=O)C1ON(c2ccccc2)C(c2ccc(C)cc2)C12C(=O)Nc1ccccc12` (configuration not stated), the MNTC at 24 h was 234 µM.
`CCOC(=O)C1ON(c2ccccc2)C(c2cccc(Br)c2)C12C(=O)Nc1ccccc12` (configuration not stated) showed an MNTC at 24 h of 203 µM.
Work on `CCOC(=O)C1ON(c2ccccc2)C(c2ccc(N(C)C)cc2)C12C(=O)Nc1ccc(F)cc12` (configuration not stated) yielded an MNTC at 24 h of 110 µM.
For `CCOC(=O)C1ON(c2ccccc2)C(c2ccc(OCC)cc2)C12C(=O)Nc1ccc(F)cc12` (configuration not stated), the MNTC at 24 h was 105 µM.
`O=C(/C=C/C=C/c1ccc2c(c1)OCO2)N1CCCCC1` [PIPERINE] showed an MNTC at 24 h of 250 µM.
Compound `CCOC(=O)C1ON(c2ccccc2)C(c2ccc(Cl)cc2)C12C(=O)Nc1ccccc12` (configuration not stated) has an MNTC at 24 h of 223 µM.
`CCOC(=O)C1C(c2ccc(Cl)cc2)N(c2ccccc2)OC12C(=O)Nc1ccccc12` (configuration not stated) showed an MNTC at 24 h of 223 µM.
Work on `CCOC(=O)C1ON(c2ccccc2)C(c2ccc(Br)cc2)C12C(=O)Nc1ccccc12` (configuration not stated) yielded an MNTC at 24 h of 203 µM.
`CCOC(=O)C1ON(c2ccccc2)C(c2ccc(OC)cc2)C12C(=O)Nc1ccc(F)cc12` (configuration not stated) gave an MNTC at 24 h of 108 µM.
In the case of `CCOC(=O)C1C(c2cccc(C)c2)N(c2ccccc2)OC12C(=O)Nc1ccccc12` (configuration not stated), the MNTC at 24 h is reported as 234 µM.

Tested on: not listed separately
Experiment: Cytotoxicity against HUVEC assessed as cell viability after 24 hrs by MTT assay relative to control
Format: cell-based
Parameters: concentration or dose not given beside the values
Conditions: human, HUVEC cells; read-out: Activity
Compound `CCOC(=O)C1ON(c2ccccc2)C(c2ccccc2F)C12C(=O)Nc1ccc(F)cc12` (configuration not stated) has a viability at 24 h of 96%.
For `CCOC(=O)C1ON(c2ccccc2)C(c2ccc(F)cc2)C12C(=O)Nc1ccc(F)cc12` (configuration not stated), the viability at 24 h was 96%.
In the case of `CCOC(=O)C1C(c2ccc(C#N)cc2)N(c2ccccc2)OC12C(=O)Nc1ccc(F)cc12` (configuration not stated), the viability at 24 h is reported as 98%.
Compound `CCOC(=O)C1ON(c2ccccc2)C(c2ccc(Br)cc2)C12C(=O)Nc1ccc(F)cc12` (configuration not stated) has a viability at 24 h of 98%.
Compound `CCOC(=O)C1ON(c2ccccc2)C(c2cccc(Cl)c2)C12C(=O)Nc1ccccc12` (configuration not stated) has a viability at 24 h of 96%.
`CCOC(=O)C1ON(c2ccccc2)C(c2cccc(OC)c2OC)C12C(=O)Nc1ccc(F)cc12` (configuration not stated) showed a viability at 24 h of 98%.
`CCOC(=O)C1ON(c2ccccc2)C(c2cccc([N+](=O)[O-])c2)C12C(=O)Nc1ccccc12` (configuration not stated) showed a viability at 24 h of 96%.
With `CCOC(=O)C1ON(c2ccccc2)C(c2ccc(F)cc2)C12C(=O)Nc1ccccc12` (configuration not stated) the viability at 24 h was 96%.
Work on `CCOC(=O)C1ON(c2ccccc2)C(c2cc(OC)c(OC)c(OC)c2)C12C(=O)Nc1ccc(F)cc12` (configuration not stated) yielded a viability at 24 h of 97%.
Compound `CCOC(=O)C1ON(c2ccccc2)C(c2ccc(C)cc2)C12C(=O)Nc1ccccc12` (configuration not stated) has a viability at 24 h of 99%.
`CCOC(=O)C1ON(c2ccccc2)C(c2cccc(Br)c2)C12C(=O)Nc1ccccc12` (configuration not stated) gave a viability at 24 h of 95%.
`CCOC(=O)C1ON(c2ccccc2)C(c2ccc(N(C)C)cc2)C12C(=O)Nc1ccc(F)cc12` (configuration not stated) gave a viability at 24 h of 96%.
With `CCOC(=O)C1ON(c2ccccc2)C(c2ccc(OCC)cc2)C12C(=O)Nc1ccc(F)cc12` (configuration not stated) the viability at 24 h was 97%.
In the case of `O=C(/C=C/C=C/c1ccc2c(c1)OCO2)N1CCCCC1` [PIPERINE], the viability at 24 h is reported as 98%.
Work on `CCOC(=O)C1ON(c2ccccc2)C(c2ccc(Cl)cc2)C12C(=O)Nc1ccccc12` (configuration not stated) yielded a viability at 24 h of 96%.
With `CCOC(=O)C1C(c2ccc(Cl)cc2)N(c2ccccc2)OC12C(=O)Nc1ccccc12` (configuration not stated) the viability at 24 h was 96%.
In the case of `CCOC(=O)C1ON(c2ccccc2)C(c2ccc(Br)cc2)C12C(=O)Nc1ccccc12` (configuration not stated), the viability at 24 h is reported as 98%.
`CCOC(=O)C1ON(c2ccccc2)C(c2ccc(OC)cc2)C12C(=O)Nc1ccc(F)cc12` (configuration not stated) gave a viability at 24 h of 96%.
Work on `CCOC(=O)C1C(c2cccc(C)c2)N(c2ccccc2)OC12C(=O)Nc1ccccc12` (configuration not stated) yielded a viability at 24 h of 96%.
